# Settings: in vivo
substance,measurement,value
Ivermectin,blood plasma levels versus dosage,dose-response relationship

# — patent US11850280B1 (priority 2020, dated 2023)
